Measurements as given in publication PMC7155171, “Probing the Open Global Health Chemical Diversity Library for Multistage-Active Starting Points for Next-Generation Antimalarials” (ACS Infectious Diseases, 2020).
Read-outs that look alike come from different tables or passages of the source.

What was measured:
[1] = system: P. falciparum Dd2 (PfLuc) line expressing firefly luciferase, asexual blood stage; test: microbe, parasite or virus in culture; assay type: cell-based, Plasmodium falciparum; conditions: Plasmodium falciparum
P. falciparum Dd2 = test: SYBR green I asexual blood stage proliferation assay (96 h); assay type: cell-based, Plasmodium falciparum; conditions: Plasmodium falciparum, DD2, 11-pt dose response, 96hr
[2] = DD2, read-out: CDD P. falciparum Luciferase ABS 11-pt Reconfirmation Dose Response (48hr): IC50 (μM), 11-pt dose response, 48hr
[3] = DD2, 8-pt dose response, 96hr, read-out: CDD P. falciparum Luciferase ABS 8-pt Reconfirmation Dose Response (96hr): IC50
[4] = DD2, 8-pt dose response, 96hr, read-out: CDD P. falciparum Luciferase ABS 8-pt Reconfirmation Dose Response (96hr): Maximum inhibition (%)
[5] = DD2, 11-pt dose response, 48hr, read-out: CDD P. falciparum Luciferase ABS 11-pt Reconfirmation Dose Response (48hr): Maximum inhibition (%)
[6] = DD2, 11-pt dose response, 96hr, read-out: CDD P. falciparum Luciferase ABS 11-pt Reconfirmation Dose Response (96hr): IC50
[7] = DD2, 11-pt dose response, 96hr, read-out: CDD P. falciparum Luciferase ABS 11-pt Reconfirmation Dose Response (96hr): Maximum inhibition (%)
[8] = Sybr Green I, read-out: CDD P. falciparum Sybr Green I ABS 11-pt Reconfirmation Dose Response (96hr): IC50
[9] = Sybr Green I, read-out: CDD P. falciparum Sybr Green I ABS 11-pt Reconfirmation Dose Response (96hr): Maximum inhibition (%)
[10] = DD2, read-out: P. falciparum Luciferase ABS 11-pt Reconfirmation Dose Response (48hr): IC50, 11-pt dose response, 48hr
[11] = DD2, 8-pt dose response, 96hr, read-out: P. falciparum Luciferase ABS 8-pt Reconfirmation Dose Response (96hr): IC50
[12] = DD2, 8-pt dose response, 96hr, read-out: P. falciparum Luciferase ABS 8-pt Reconfirmation Dose Response (96hr): Maximum inhibition (%)
[13] = DD2, 11-pt dose response, 48hr, read-out: P. falciparum Luciferase ABS 11-pt Reconfirmation Dose Response (48hr): Maximum inhibition (%)
[14] = DD2, 11-pt dose response, 96hr, read-out: P. falciparum Luciferase ABS 11-pt Reconfirmation Dose Response (96hr): IC50
[15] = DD2, 11-pt dose response, 96hr, read-out: P. falciparum Luciferase ABS 11-pt Reconfirmation Dose Response (96hr): Maximum inhibition (%)
[16] = read-out: P. falciparum Sybr Green I ABS 11-pt Reconfirmation Dose Response (96hr): IC50
[17] = read-out: P. falciparum Sybr Green I ABS 11-pt Reconfirmation Dose Response (96hr): Maximum inhibition (%)

| Structure (SMILES) | IC50 [1, 2] | IC50 [1, 3] | Emax [1, 4] | Emax [1, 5] | IC50 [1, 6] | Emax [1, 7] | IC50 (P. falciparum Dd2; [8]) | Emax (P. falciparum Dd2; [9]) | IC50 [1, 10] | IC50 [1, 11] | Emax [1, 12] | Emax [1, 13] | IC50 [1, 14] | Emax [1, 15] | IC50 (P. falciparum Dd2; [16]) | Emax (P. falciparum Dd2; [17]) |
| --- | --- | --- | --- | --- | --- | --- | --- | --- | --- | --- | --- | --- | --- | --- | --- | --- |
| CN1CCN(Cc2ccccc2Oc2nccc3occc23)CC1 [DDD01252026] | > 12.5 µM | 0.71 µM | 83.5% | 26.1% | 2.91 µM | 85.7% | > 4.16 µM | 63.4% | – | – | – | – | – | – | – | – |
| O=C(C1CNCCO1)N1CCCC(c2ccccc2)(c2ccccc2)C1 (stereo not shown) [DDD01252287] | – | – | – | – | – | – | – | – | 6.95 µM | 2.21 µM | 80.7% | 53.2% | 2.05 µM | 83.1% | 5.76 µM | 58.4% |
| COCCn1ccnc1CN(Cc1ccccn1)Cc1sccc1C [DDD01252459] | – | – | – | – | – | – | – | – | 3.48 µM | 1.19 µM | 90.8% | 94.7% | 0.73 µM | 99.1% | > 4.16 µM | 87.8% |
| Cc1ccc(C2(CN(C)Cc3sccc3C)CCNCC2)nc1 [DDD01252463] | > 12.5 µM | 0.73 µM | 78.8% | 41.3% | 1.59 µM | 81.7% | > 12.5 µM | 57.2% | – | – | – | – | – | – | – | – |
| c1ccn2c(C3CCCN(c4ncnc5c4CCNC5)C3)nnc2c1 (stereo not shown) [DDD01252518] | > 1.39 µM | 0.26 µM | 90.8% | 64.8% | 0.449 µM | 97.6% | > 12.5 µM | 42% | – | – | – | – | – | – | – | – |
| CCOc1cccc(CN2CCCC(Nc3ccc(F)cc3)C2)c1O (stereo not shown) [DDD01252745] | 1.43 µM | 0.6 µM | 93.4% | 96.3% | 0.703 µM | 99.7% | 1.88 µM | 98.6% | – | – | – | – | – | – | – | – |
| CN(CCO)C[C@@H]1CN(Cc2ccccc2-c2ccccc2)C[C@@H]1CO [DDD01252927] | 8.14 µM | 0.57 µM | 92% | 71.8% | 1.25 µM | 92.8% | > 1.39 µM | 89.1% | – | – | – | – | – | – | – | – |
| Cc1ccc(C)c(OCCNC(=O)[C@@H]2CCCCN2)c1 [DDD01252936] | 6.36 µM | 0.37 µM | 89.3% | 74.3% | 1.17 µM | 87.5% | 7.6 µM | – | – | – | – | – | – | – | – | – |
| CN(C)c1nc2c(c(NCc3cc(O)ncn3)n1)CCCC2 [DDD01252975] | 3.75 µM | 0.59 µM | 94% | 96% | 2.11 µM | 99.7% | 1.82 µM | 99.1% | – | – | – | – | – | – | – | – |
| Cc1cc(F)ccc1N1CCC(N2C[C@@H](CN(C)C)[C@@H](CO)C2)CC1 [DDD01253692] | > 4.16 µM | 0.37 µM | 94.9% | 55.2% | 0.396 µM | 100% | 2.03 µM | 90.3% | – | – | – | – | – | – | – | – |
| c1ccc(C2CN(C3CC3)CC3(CCN(Cc4cscn4)CC3)C2)cc1 (stereo not shown) [DDD01253863] | – | – | – | – | – | – | – | – | 4.6 µM | 1.16 µM | 78.8% | 85% | 3.45 µM | 96.3% | > 4.16 µM | – |
| OC(CNCc1ccccc1C(F)(F)F)c1ccccc1 (stereo not shown) [DDD01254021] | 4.82 µM | 0.87 µM | 91.4% | 84.3% | 1.76 µM | 97.4% | 3.66 µM | 87.9% | – | – | – | – | – | – | – | – |
| NCC1Cc2cc(-c3nccc(N4CCC(O)CC4)n3)cc(F)c2O1 (stereo not shown) [DDD01254054] | 2.43 µM | 0.59 µM | 94.6% | 91.4% | 1.87 µM | 98.9% | 2.49 µM | 92% | – | – | – | – | – | – | – | – |
| COCCN(C)Cc1cc(Cl)ccc1OCC(O)CN1CCCCCC1 (stereo not shown) [DDD01254091] | – | – | – | – | – | – | – | – | 3 µM | 1.11 µM | 94.7% | 98.3% | > 1.39 µM | 101% | 3.77 µM | 91.7% |
| Nc1nc2c(c(N3CCCC(c4nnc5ccccn45)C3)n1)CCNC2 (stereo not shown) [DDD01254485] | > 12.5 µM | 0.18 µM | 90.3% | 46.1% | 0.312 µM | 95.2% | > 12.5 µM | 52.8% | – | – | – | – | – | – | – | – |
